Assay results reported in patent US5882851A, “Cytochrome P-450 monooxygenases” (Novartis Finance Corporation, priority 1993, dated 1999).

Tests used:
cytochrome P-450TYR [1] = target: T1, cytochrome P-450TYR (Sorghum bicolor, UniProt Q43135); experiment: Substrate binding spectra of isolated sorghum cytochrome P-450TYR (difference spectrum A390-420)
T1 construct: from tissue; host or cells: microsomes of etiolated Sorghum bicolor seedlings, solubilised and purified by dye columns
T1 sequence (Q43135 1-558): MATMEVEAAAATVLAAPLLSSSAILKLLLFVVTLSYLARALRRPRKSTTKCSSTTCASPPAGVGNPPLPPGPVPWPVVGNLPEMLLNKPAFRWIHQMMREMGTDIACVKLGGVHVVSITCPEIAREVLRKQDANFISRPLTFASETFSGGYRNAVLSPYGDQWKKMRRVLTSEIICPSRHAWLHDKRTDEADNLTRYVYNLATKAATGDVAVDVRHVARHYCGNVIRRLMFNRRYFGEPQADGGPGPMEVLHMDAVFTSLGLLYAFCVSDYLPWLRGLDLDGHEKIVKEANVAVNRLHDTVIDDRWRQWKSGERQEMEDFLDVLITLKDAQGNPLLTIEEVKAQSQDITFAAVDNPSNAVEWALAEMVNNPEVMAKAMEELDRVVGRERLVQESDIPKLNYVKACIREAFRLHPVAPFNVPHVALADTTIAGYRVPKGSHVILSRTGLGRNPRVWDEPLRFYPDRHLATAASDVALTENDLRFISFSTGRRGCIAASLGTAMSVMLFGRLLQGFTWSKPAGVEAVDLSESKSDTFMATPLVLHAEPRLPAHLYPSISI
Procedure: Cytochrome P-450 substrate binding spectra are recorded with stepwise increased substrate concentration until saturating conditions are reached.
Cytochrome P-450TYR in the oxidized state has a strong absorption peak at 420 nm, representing the low spin state of the iron of the heme group. The binding of a ligand to the heme group shifts the absorption maximum by changing the spin state of the iron. […] The following experimental procedure is used to obtain the substrate binding spectrum: two identical cuvettes containing a buffered solution of the isolated cytochrome P-450 are prepared. The substrate of the enzyme is added to the sample cuvette whereas the same volume of buffer is added to the other cuvette. The difference spectrum is then recorded in an SLM-Aminco DW2c spectrophotometer. The absorption difference, A390-420, is proportional to the concentration of cytochrome P-450TYR with a bound substrate at its active site. If a saturating concentration of substrate is added to the sample cuvette, the absorption difference is proportional to the concentration of the substrate specific cytochrome P-450 in the cuvettes. The saturating concentration of the substrate is determined by titrating the cytochrome P-450 sample with increasing amounts of substrate and monitoring A390-420.
If a cytochrome P-450 sample can be saturated with two different substrates, there may be two different cytochrome P-450 enzymes in the sample, or there may be one cytochrome P-450 enzyme able to bind to both substrates. To discriminate between these possibilities, saturating amounts of the two substrates are added sequentially and the A390-420absorption change is monitored. If, independent of the order of addition, the addition of the second sample gives rise to an increased A390-420value compared to the value after the addition of the first substrate, the two substrates are bound by different enzymes. If A390-420 remains unchanged upon addition of the second substrate, independent of the order of addition, both substrates bind to the same active site, i.e. to the same cytochrome P-450 enzyme.

cytochrome P-450TYR [2] = target: T2, cytochrome P-450TYR (Sorghum bicolor, UniProt Q43135); experiment: Reconstitution of cytochrome P-450TYR activity in DLPC micelles; type: biochemical
T2 construct: from tissue; host or cells: microsomes of etiolated Sorghum bicolor seedlings, solubilised and purified by dye columns
Source text: Reconstitution of the enzyme activity of a microsomal P-450 enzyme is accomplished by insertion of the cytochrome P-450 enzyme and the corresponding NADPH-cytochrome P-450 oxidoreductase into appropriate lipid micelles made from different commercially available lipids. Isolation of NADPH-cytochrome P-450 oxidoreductase is done according to Halkier and Moller, Plant Physiol. 96:10-17, 1990. A mixture of lipids can be used but with cytochrome P-450TYR di-lauroyl-phosphatidyl choline (DLPC) provides the best enzymatic activity. One rate limiting factor of this rate limiting reaction is the number of correctly formed complexes of cytochrome P-450TYR and NADPH-cytochrome P-450 oxidoreductase. Excess amounts of the oxidoreductase and concentrated enzyme solutions ensure a sufficient number of active complexes.
A reconstituted enzyme is obtained using the following components:
Cytochrome P-450TYR : 100 μg/ml in 50 mM potassium phosphate buffer pH 7,9
Oxidoreductase, purified from Sorghum bicolor: 100 μg/ml in 50 mM potassium phosphate buffer pH 7,9
Lipid: 10 mg/ml di-lauroyl-phosphatidyl choline, sonicated in 50 mM potassium phosphate buffer pH 7,9
^14 C-tyrosine: commercially available from Amersham; [U-^14 C]-L-tyrosine 0.5 μCi
10 μl of the lipid suspension is mixed in a glass vial with 50 μl of the cytochrome P-450TYR (0-1.5 pmol) solution. 50 μl of the oxidoreductase (0-0.15 U) solution is added and then 10 μl tyrosine solution and 10 μl NADPH solution are added and the mixture is sonicated in a Branson 5200 sonication bath for one minute. The reaction mixture is subsequently incubated for 1 hour at 30° C. At the end of the incubation period the reaction is stopped by transferring the glass vials onto ice. Radioactively labelled intermediates formed are extracted into 50 μl ehtyl acetate, applied to a silica coated TLC plate and developed using an ethyl acetate/toluene (1:5 v/v) mixture as mobile phase. The resultant product, p-hydroxyphenylacetaldehyde oxime is visualized by autoradiography of the TLC plate. Alternatively, the intermediates are analyzed by reverse-phase HPLC coupled to a Berthold radioactiviy monitor. The HPLC separation was carried out using a nucleosil 100-10C18 column isocratically eluted with 1,5% 2-propanol in 25 mM Hepes pH 7,9 (Halkier et al, J. Biol. Chem. 264:19487-19494, 1989). Control samples may be made by omitting either cytochrome P-450 oxidoreductase or NADPH.

Structure (SMILES): N[C@@H](Cc1ccc(O)cc1)C(=O)O [tyrosine, L-tyrosine]
- initial A390-420 (cytochrome P-450TYR [1]; 30 μl 5 mM tyrosine added to 500 μl P-450TYR): 0,0437
- resulting A390-420 (cytochrome P-450TYR [1]; 30 μl 5 mM tyrosine, dilution factor 530/500): 0,0463
- initial A390-420 (cytochrome P-450TYR [1]; 60 μl 5 mM tyrosine): 0,0496
- resulting A390-420 (cytochrome P-450TYR [1]; 60 μl 5 mM tyrosine, dilution factor 560/500): 0,0556
- initial A390-420 (cytochrome P-450TYR [1]; 90 μl 5 mM tyrosine): 0,0486
- resulting A390-420 (cytochrome P-450TYR [1]; 90 μl 5 mM tyrosine, dilution factor 590/500): 0,0573
- type of substrate binding spectrum (cytochrome P-450TYR [1]; isolated sorghum P-450TYR): type I binding spectrum
- turn-over number (cytochrome P-450TYR [2]; in the absence of added salt): 228 min⁻¹
- turn-over number (cytochrome P-450TYR [2]; in the presence of 15 mM NaCl): 198 min⁻¹
